≈ marks a conversion by molar mass, not a printed value. Where two headings read alike, the source gives them in different places.
Assays:
[1] = tested on: HSV-2 mediated calcium flux in HEK293-RyR1 cells; experiment: Calcium flux assay with Fluo-4 Direct Calcium Assay Kit; format: cell-based; details: for RFU drop in calcium flux: FIG. 6A-6B legend; for maximum average ΔRFU: treated cells minus cells only, HSV-2 MOI 0.01
Method: The Fluo-4 Direct™ Calcium Assay Kit was be used to assess calcium response in RyR1-expressing cells treated with a calcium agonist (Carbachol) or infected with HSV-2 MS at an MOI of 0.01. For the virus-infected cells, procedures as described above were followed but with a 96-well black plate.
Cells were seeded in 100 μL of incubation medium in black 96-well plates coated with poly-D-lysine at 5.0E+04 cells per well and incubated at 37° C. with 5% CO2 overnight (16-20 hours). […]
A 2× Fluo-4 Direct™ calcium reagent loading solution with 5 mM probenecid was prepared by adding 10 mL of Fluo-4 Direct™ calcium assay buffer and 200 μL of the 250 mM stock solution of probenecid to one bottle of 2× Fluo-4 Direct™ calcium reagent (labeled Component A). The solution was vortexed and allowed to sit for five minutes for complete dissolution. […]
The fluorescence of each well was measured directly after the addition of carbachol with the Biotek Cytation 5 plate reader using the fluorescence reader settings for excitation at 494/10 nm and emission at 520/10 nm. The fluorescence measurements in relative fluorescence units (RFU) were recorded and exported to Excel.
ΔRFU is given in relative fluorescent units (RFU) as the maximum response (TA or virus treated cells) minus the minimum response (cells only).
On day 3, a 250 mM stock solution of probenecid was prepared by adding 1 mL of Fluo-4 Direct™ calcium assay buffer (labeled Component C) to each 77 mg vial of water-soluble probenecid. The vial was vortexed until dissolved.
Plated cells were removed from the incubator. TA/virus dilutions were removed and 100 μL of incubation medium was added to the plate. Then, 100 μL of 2× Fluo-4 Direct™ calcium reagent loading solution was added. Plates were incubated for 30 minutes at 37° C. with 5% CO2 followed by 30 minutes at room temperature. Carbachol dilutions (100 μL) were added to the plate that contains only cells as a positive control.

[2] = base form versus salt form (Miller et al. 1993); cited from earlier work
[3] = tested on: HSV-2 MS in HEK293-RyR1 cells; experiment: HSV-2 cytopathic effect (CPE) inhibition assay, crystal violet staining; format: cell-based, Herpes Simplex Virus 2, strain MS; details: for IC50: Human alphaherpesvirus 2, 72 h, read-out: IC50, CPE inhibition
Method: HSV-2 infection was established in HEK293-RyR1 cells by testing three different multiplicities of infection (MOI) as part of the development of the CPE inhibition assay. An inhibitor of HSV-2 was incubated with cells and subsequently infected with HSV-2 at three different MOIs. Cells-only and virus-only controls were included. Cells were observed daily to monitor CPE progression, and the incubation was allowed to continue until sufficient CPE of 60-80% is observed in the virus-only controls. CPE was quantified via crystal violet staining and results given as % inhibition and IC50 values, 50% of the maximum inhibitory dosage of the test article.
The virus was Herpes Simplex Virus 2, strain MS, lot 7172020, at MOI of 0.01 (ATCC, Catalog #VR-540). HEK293-RyR1 cell line was obtained from Kerafast (Cat. #EUR301). Growth medium was DMEM (High Glucose) supplemented with 10% FBS, 2 mM L-Glutamine, 1% Pen/Strep, 100 µg/ml Hygromycin. Incubation medium was DMEM (High Glucose) supplemented with 2% FBS, 2 mM L-Glutamine, 1% Pen/Strep. Infection medium was DMEM (High Glucose) supplemented with 2 mM L-Glutamine, 1% Pen/Strep. Acyclovir (as a control HSV-2 MS inhibitor) was stored at cell culture grade water (Ultrapure DNAse/RNase free distilled water, Thermo Scientific Cat. 10977015) and tested at concentrations of 10, 3.2, 1.0, 0.32, 0.10, 0.032, 0.010, 0.0032 50, 25, 12.5, 6.25, 3.125, 1.5625, 0.78125, 0.3906 100, 50, 25, 12.5, 6.25, 3.125, 1.5625, 0.78125 mg/ml. Carbachol (a Calcium agonist), obtained from Fisher Scientific (ASL0667403) was stored in cell culture-grade water and tested at concentrations of 333, 166.65, 83.325, 41.6625 mg/ml. […]
HSV-2 MS was prepared at the specific MOI in infection medium and added to the acyclovir/TA-containing wells in a dilution block. […] Plates were monitored daily to observe CPE levels. […]
After one hour, plates were washed with tap water and blotted on absorbent paper. Plates were allowed to air dry, and the absorbance of each well was read at 570 nm with a plate reader.
Absorbance values were exported into Excel. […]

HSV-2 genital herpes = experiment: Treatment of HSV-2 genital herpes in human subjects; format: in vivo
From the text: An otherwise healthy person presented pain with urination and a solitary sore on the vulva. It was initially unclear by visible inspection if the solitary sore was herpes or a shave injury. […] The patient reported Pain 7/10, and worse with urination. […] The patient was given the formulation to use at home (two applications per day). The patient was also offered a prescription for 1 gram of Valtrex to be taken twice a day.
As a comparison, before the date of the patient's treatment, typical otherwise healthy female patients of this same age presenting similar herpes sores are given a prescription for Valtrex and take up to two weeks to resolve their herpes ulcers.
A second human subject with a long history of HSV-2 who has previously taken oral Valtrex™ (Valacyclovir) to resolve past HSV-2 ulcerations was administered a representative pharmaceutical composition of this disclosure as described in Example 1. The subject has previously resolved HSV-2 ulcerations in 5-7 days after outbreak when administered Valtrex. The subject was administered the representative tetracaine composition twice a day for two days at which point the subject's lesions were completely re-epithelialized and the pain was reduced to 0/10. Before treatment, the subject reported pain at 5/10 at max. […]

[4] = at the highest concentration tested

| Compound | RFU drop in calcium flux [1] | fold higher average ΔRFU than Acyclovir [1, 4] [fold] | maximum average ΔRFU [1, 4] [RFU] | flux through the dermis [2] | IC50 [3] [mg/mL] | cell morphology of treated cells ([3]; compared to cells only, virus-only and Acyclovir-treated cells, day 3 (FIG. 5D)) | time to resolve HSV-2 ulcerations after outbreak (HSV-2 genital herpes; person, past outbreaks, oral) [days] | time to resolve herpes ulcers (HSV-2 genital herpes; typical otherwise healthy female patients of same age with similar herpes sores, prescription) | IC50 ([3]; HSV-2 MOI 0.01, 5.0×10^4 HEK293-RyR1 cells per well, day 3) [mg/mL] |
| --- | --- | --- | --- | --- | --- | --- | --- | --- | --- |
| CCCCNc1ccc(C(=O)OCCN(C)C)cc1 [Tetracaine, 2-(dimethylamino)ethyl 4-(butylamino)benzoate] | 4000 RFU | 3.6 | −6527.9 | fluxes more readily than the salt form | 94.6 (≈ 358 mM) | Abnormal cell morphology | – | – | – |
| CC(C)[C@H](N)C(=O)OCCOCn1cnc2c(=O)[nH]c(N)nc21 [Valtrex] | – | – | – | – | – | – | 5 to 7 | up to two | – |
| Nc1nc2c(ncn2COCCO)c(=O)[nH]1 [Acyclovir] | about 2000 RFU | – | −1801.6 | – | – | – | – | – | 0.0457 (≈ 0.203 mM) |

Reference: patent US20250319055A1, “COMPOSITIONS FOR TREATING GENITAL HERPES AND METHODS OF THEIR USE” (priority 2024, published 2025)
